# Test results as given in ChEMBL document CHEMBL1159160, “L-162,389: a potent orally active angiotensin II receptor antagonist with balanced affinity to both AT1 and AT2 receptor subtypes” (Bioorg Med Chem Lett, 1996).
# Molecular target: T1, Type-2 angiotensin II receptor (Rattus norvegicus, UniProt P35351)
# T1 sequence (P35351 whole entry): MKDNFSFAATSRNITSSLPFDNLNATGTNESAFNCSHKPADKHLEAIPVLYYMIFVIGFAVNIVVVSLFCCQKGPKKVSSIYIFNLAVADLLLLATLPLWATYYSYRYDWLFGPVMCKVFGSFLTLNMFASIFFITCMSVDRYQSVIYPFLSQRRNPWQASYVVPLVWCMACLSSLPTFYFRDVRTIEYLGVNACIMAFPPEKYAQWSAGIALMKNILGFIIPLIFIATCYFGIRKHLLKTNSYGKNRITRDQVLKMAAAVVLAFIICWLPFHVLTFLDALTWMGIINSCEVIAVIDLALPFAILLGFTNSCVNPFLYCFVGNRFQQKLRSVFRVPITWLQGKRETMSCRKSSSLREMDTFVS
# Experiment: Compound was evaluated for inhibition of 125I[Sar1,Ile8] aII binding to rat midbrain membrane preparation Angiotensin II receptor, type 2
# Assay type: tissue-based
row,IC50 [nM],SMILES
1,37,CCCCOC(=O)NS(=O)(=O)c1ccc(CC)cc1-c1ccc(Cn2c(CC)nc3c(C)cc(C)nc32)cc1
2,3.8,CCCCOC(=O)NS(=O)(=O)c1ccc(CCC)cc1-c1ccc(Cn2c(CC)nc3c(C)cc(C)nc32)cc1
3,87,CCCCOC(=O)NS(=O)(=O)c1ccc(C)cc1-c1ccc(Cn2c(CC)nc3c(C)cc(C)nc32)cc1
4,95,CCCCOC(=O)NS(=O)(=O)c1ccccc1-c1ccc(Cn2c(CC)nc3c(C)cc(C)nc32)cc1

# Molecular target: T2, Type-1 angiotensin II receptor (Oryctolagus cuniculus, UniProt P34976)
# T2 sequence (P34976 whole entry): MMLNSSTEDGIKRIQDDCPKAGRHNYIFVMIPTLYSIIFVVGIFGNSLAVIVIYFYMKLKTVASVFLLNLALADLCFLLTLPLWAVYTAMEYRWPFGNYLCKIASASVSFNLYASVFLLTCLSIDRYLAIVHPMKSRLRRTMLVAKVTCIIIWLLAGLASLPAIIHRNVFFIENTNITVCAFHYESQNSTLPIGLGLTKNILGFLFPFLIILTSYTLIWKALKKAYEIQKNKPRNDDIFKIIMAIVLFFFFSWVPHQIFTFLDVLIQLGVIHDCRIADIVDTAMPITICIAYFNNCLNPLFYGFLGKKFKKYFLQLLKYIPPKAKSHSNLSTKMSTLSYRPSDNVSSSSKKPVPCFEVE
# Experiment: Compound was evaluated for inhibition of 125I[Sar1,Ile8] all binding to rabbit aorta Angiotensin II receptor, type 1
# Assay type: tissue-based
row,IC50 [nM],SMILES
1,1.4,CCCCOC(=O)NS(=O)(=O)c1ccc(CC)cc1-c1ccc(Cn2c(CC)nc3c(C)cc(C)nc32)cc1
2,2.1,CCCCOC(=O)NS(=O)(=O)c1ccc(CCC)cc1-c1ccc(Cn2c(CC)nc3c(C)cc(C)nc32)cc1
3,0.2,CCCCOC(=O)NS(=O)(=O)c1ccc(C)cc1-c1ccc(Cn2c(CC)nc3c(C)cc(C)nc32)cc1
4,0.2,CCCCOC(=O)NS(=O)(=O)c1ccccc1-c1ccc(Cn2c(CC)nc3c(C)cc(C)nc32)cc1
